Laboratory results published in ChEMBL document CHEMBL2163320, “Benzofuranones as potential antinociceptive agents: structure-activity relationships” (2012).

Key:
[1] = system: Mus musculus; test: Antinociceptive activity in Swiss mouse assessed as inhibition of acetic acid-induced abdominal constriction at 10 mg/kg administered 30 to 60 mins prior to acetic acid challenge measured over 20 mins by writhing test; format: functional, Abdomen
[2] = system: Mus musculus; test: Antinociceptive activity in Swiss mouse assessed as inhibition of acetic acid-induced abdominal constriction administered 30 to 60 mins prior to acetic acid challenge measured over 20 mins by writhing test; format: functional; conditions: Abdomen; for ED50: read-out: ID50 (the source's name)
[3] = system: Mus musculus; test: Antinociceptive activity in Swiss mouse assessed as inhibition of acetic acid-induced abdominal constriction at 30 mg/kg administered 30 to 60 mins prior to acetic acid challenge measured over 20 mins by writhing test; format: functional, Abdomen

## COc1ccc(C(=O)CC2OC(=O)c3ccccc32)cc1OC (configuration not stated)
[1]
  Imax: 49.4%

## O=C(CC1OC(=O)c2ccccc21)c1ccc(Cl)c(Cl)c1 (configuration not stated)
[2]
  ED50: 34.6 µmol/kg
[3]
  Imax: 90.7%

## O=C(CC1OC(=O)c2ccccc21)c1ccc(Cl)cc1 (configuration not stated)
[2]
  inhibition: Dose-dependent effect
  ED50: 33.7 µmol/kg
[3]
  Imax: 97.7%
[1]
  Imax: 73.5%
